# From ChEMBL document CHEMBL4680354, “Design, synthesis and biological evaluation of novel indanone containing spiroisoxazoline derivatives with selective COX-2 inhibition as anticancer agents” (Bioorg Med Chem, 2021)
# Experiments:
# [1] = molecular target: T1, Prostaglandin G/H synthase 1 (Ovis aries, UniProt P05979); assay: Inhibition of Ovine COX-1 by chemiluminescent enzyme method
# T1 sequence (P05979 whole entry): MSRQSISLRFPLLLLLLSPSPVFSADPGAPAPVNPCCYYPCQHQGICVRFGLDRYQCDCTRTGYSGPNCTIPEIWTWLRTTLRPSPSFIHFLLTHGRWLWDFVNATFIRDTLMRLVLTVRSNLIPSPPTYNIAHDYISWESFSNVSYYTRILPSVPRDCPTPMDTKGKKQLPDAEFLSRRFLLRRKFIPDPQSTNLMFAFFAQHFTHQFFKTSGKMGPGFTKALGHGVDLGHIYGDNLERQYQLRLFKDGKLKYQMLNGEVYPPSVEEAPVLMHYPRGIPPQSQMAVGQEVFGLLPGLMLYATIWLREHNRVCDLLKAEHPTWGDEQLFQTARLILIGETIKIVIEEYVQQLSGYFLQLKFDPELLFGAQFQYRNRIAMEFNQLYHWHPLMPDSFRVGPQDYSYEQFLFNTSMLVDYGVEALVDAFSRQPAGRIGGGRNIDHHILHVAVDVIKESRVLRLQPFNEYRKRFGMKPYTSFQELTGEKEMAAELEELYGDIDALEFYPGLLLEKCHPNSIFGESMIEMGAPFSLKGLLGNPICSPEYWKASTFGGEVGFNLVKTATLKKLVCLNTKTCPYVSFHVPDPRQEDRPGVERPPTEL
# HEK293 = assay: Cytotoxicity against human HEK293 cells assessed as reduction in cell viability incubated for 72 hrs by MTT assay; format: cell-based; conditions: HEK293, 72 h
# MCF7 [2] = assay: Antiproliferative activity against human cells MCF-7 assessed as reduction in cell viability incubated for 48 hrs by MTT assay; format: functional, cell-based; conditions: MCF7, 48 h
# HT-29 = assay: Antiproliferative activity against human HT-29 cells assessed as reduction in cell viability incubated for 72 hrs by MTT assay; format: functional, cell-based; conditions: HT-29, 72 h
# MCF-10A = assay: Antiproliferative activity against human MCF10A cells assessed as reduction in cell viability incubated for 72 hrs by MTT assay; format: functional, cell-based
# MCF7 [3] = assay: Antiproliferative activity against human MCF-7 cells assessed as reduction in cell viability incubated for 72 hrs by MTT assay; format: functional, cell-based; conditions: MCF7, 72 h
# MCF7 [4] = assay: Antiproliferative activity against human cells MCF-7 assessed as reduction in cell viability incubated for 24 hrs by MTT assay; format: functional, cell-based; conditions: MCF7, 24 h
# MCF7 [5] = assay: Induction of apoptosis in human MCF7 cells assessed as viable cells at IC50 measured after 72 hrs by Annexin-V/propidium iodide staining-based flow cytometric analysis (reference value: […]); format: functional
# MCF7 [6] = assay: Induction of apoptosis in human MCF7 cells assessed as early apoptotic cells at IC50 measured after 72 hrs by Annexin-V/propidium iodide staining-based flow cytometric analysis (reference value: 1.1%); format: functional
# MCF7 [7] = assay: Induction of apoptosis in human MCF7 cells assessed as late apoptotic cells at IC50 measured after 72 hrs by Annexin-V/propidium iodide staining-based flow cytometric analysis (reference value: 92.7%); format: functional
# MCF7 [8] = assay: Induction of apoptosis in human MCF7 cells assessed as necrotic cells at IC50 measured after 72 hrs by Annexin-V/propidium iodide staining-based flow cytometric analysis (reference value: 4.7%); format: functional
SMILES,IC50 [1],IC50 (MCF7 [2]),IC50 (HT-29),IC50 (MCF7 [3]),IC50 (MCF7 [4]),IC50 (HEK293),IC50 (MCF-10A),Activity (MCF7 [5]),Activity (MCF7 [6]),Activity (MCF7 [7]),Activity (MCF7 [8])
Cc1ccc(-c2cc(C(F)(F)F)nn2-c2ccc(S(N)(=O)=O)cc2)cc1 [CELECOXIB],–,16 µM,18 µM,–,19.8 µM,–,–,–,–,–,–
CS(=O)(=O)c1ccc(C2C(c3ccc(F)cc3)=NOC23Cc2ccccc2C3=O)cc1 (configuration not stated),10.8 µM,16.5 µM,55.4 µM,0.14 µM,–,0.64 µM,3.21 µM,–,–,–,–
CS(=O)(=O)c1ccc(C2C(c3ccccc3)=NOC23Cc2ccccc2C3=O)cc1 (configuration not stated),11.4 µM,17.1 µM,239 µM,8.53 µM,–,> 100 µM,> 100 µM,–,–,–,–
CC[C@]1(O)C[C@@H]2CN(CCc3c([nH]c4ccccc34)[C@@](C(=O)OC)(c3cc4c(cc3OC)N(C)[C@H]3[C@@](O)(C(=O)OC)[C@H](OC(C)=O)[C@]5(CC)C=CCN6CC[C@]43[C@@H]65)C2)C1 [VINBLASTINE],–,–,3.18 µM,–,0.23 µM,–,–,–,–,–,–
COc1cccc2c1C(=O)c1c(O)c3c(c(O)c1C2=O)C[C@@](O)(C(=O)CO)C[C@@H]3O[C@H]1C[C@H](N)[C@H](O)[C@H](C)O1 [DOXORUBICIN],–,–,1.57 µM,–,–,–,–,–,–,–,–
CC[C@]1(O)C[C@H]2CN(CCc3c([nH]c4ccccc34)[C@@](C(=O)OC)(c3cc4c(cc3OC)N(C=O)[C@H]3[C@@](O)(C(=O)OC)[C@H](OC(C)=O)[C@]5(CC)C=CCN6CC[C@]43[C@@H]65)C2)C1 [VINCRISTINE],–,–,1.74 µM,0.89 µM,0.92 µM,–,–,–,–,–,–

# The next lines start with results.
IC50 [1],IC50 (MCF7 [2]),IC50 (HT-29),IC50 (MCF7 [3]),IC50 (MCF7 [4]),SMILES,IC50 (HEK293),IC50 (MCF-10A),Activity (MCF7 [5]),Activity (MCF7 [6]),Activity (MCF7 [7]),Activity (MCF7 [8])
12.8 µM,3.96 µM,112 µM,0.87 µM,17.6 µM,COc1cc(C2=NOC3(Cc4ccccc4C3=O)C2c2ccc(S(C)(=O)=O)cc2)cc(OC)c1OC (configuration not stated),70.8 µM,> 100 µM,–,–,–,–
12.1 µM,1.03 µM,43.7 µM,0.03 µM,10.5 µM,COc1ccc(C2=NOC3(Cc4ccccc4C3=O)C2c2ccc(S(C)(=O)=O)cc2)cc1OC (configuration not stated),> 100 µM,> 100 µM,2.5%,37.2%,44.7%,15.6%
9.89 µM,> 100 µM,68.5 µM,0.65 µM,–,COc1ccc(C2=NOC3(Cc4ccccc4C3=O)C2c2ccc(S(C)(=O)=O)cc2)cc1 (configuration not stated),> 100 µM,> 100 µM,–,–,–,–
9.43 µM,64.8 µM,99.3 µM,1.2 µM,–,CS(=O)(=O)c1ccc(C2C(c3ccc(Cl)cc3)=NOC23Cc2ccccc2C3=O)cc1 (configuration not stated),37.7 µM,22.5 µM,–,–,–,–
10.1 µM,25.7 µM,73 µM,0.17 µM,–,Cc1ccc(C2=NOC3(Cc4ccccc4C3=O)C2c2ccc(S(C)(=O)=O)cc2)cc1 (configuration not stated),82.4 µM,> 100 µM,–,–,–,–
